From US20250319115A1, “Compositions and Methods for Modulating Cytokines” (Flagship Pioneering Innovations VII, LLC, priority 2022, published 2025)

How the values were obtained:
IL-4 signaling pathway = assay: HEK-Blue IL-4 SEAP reporter assay; type: cell-based
Description: The effects of putative inhibitors on pro-inflammatory cytokine pathways are assessed using HEK-Blue cells engineered for the detection of bioactive cytokines via activation of JAK/STAT pathways and subsequent expression of the SEAP reporter gene. Cells are treated with their relevant cytokines+/−peptides or control antibodies, and 20 hours after treatment activation of the relevant cytokine receptor is determined via SEAP expression through mixing cell supernatants with a Quanti-Blue colorimetric reagent and measuring optical density at 600 nm.
Reporter lines HEK-Blue TL-4/TL-15/IFN-alpha were cultured in DMEM with GlutaMAX and 10% HI FBS (Gibco). Cells were seeded into black 96-well optical clear flat-bottomed PhenoPlates at densities of 25000 cells/well and 100 uL/well and allowed to rest overnight in a 37 C incubator with 5% CO2. After 24 hours, cells were treated with 10 μL of their relevant cytokines (StemCell Technologies) at the previously determined EC75 for activation (1.164 ng/mL for HEK-Blue IL-4, 2.26 ng/mL for HEK-Blue IL-15, and 0.456 ng/mL for HEK-Blue IFN-alpha), with or without 10 μL of peptides (5 uM final concentration) or control antibodies (1 ug/well). Cells were kept overnight in a 37 C incubator with 5% C02.
20-22 hours after treatment, 20 μL of the cell supernatants were collected and transferred to 96-well white flat opaque-bottom plates (Costar) and each sample was mixed with 180 μL of Quanti-Blue reagent. Colorimetric reactions were allowed to develop in a 37 C incubator with 5% C02 for a certain duration of time (3 hours for HEK-Blue IL-4, 2 hours for HEK-Blue IL-15, and 1 hour for IFN-alpha). Assay plates were then removed from the incubator and the optical density of each well was measured at 600 nm on a GloMax plate reader. Relative activation of the cytokine signaling pathway in question was determined by ratioing the optical density of each sample to the average optical density for the cytokine-only treated cells from the same plate.

[1] = test system: CD3/CD28 (TransAct) activated PBMCs; assay: PBMC cytokine release by Cytometric BeadArray, Inhibition format (peptide with anti-CD3/CD28 T-cell activator); type: cell-based, human; parameters: key to Inhibition by Analyte: IL-1b / Inhibition by Analyte: IL-2 / Inhibition by Analyte: TNF / Inhibition by Analyte: IP-10 / Inhibition by Analyte: IL-10: X = a hit with significant activation or inhibition of relevant cytokine release; settings: peptide applied with anti-CD3/CD28 T-cell activator, 24 hours, supernatant CBA
Description: Peripheral Blood Mononuclear Cells were seeded+/−the T-cell activator […] and +/−peptides for 24-48 hours. Cytokines were measured from the supernatant after incubation by CBA Cytometer.
Thawing PBMCs: PBMCs were thawed by pre-warming TexMACS media (Miltenyi Biotech) in 20 ml aliquots-1-50 ml conical per donor. After the media was warmed to 37° C., cells were removed from liquid nitrogen and brought to the tissue culture hood. For each donor, 1 ml of media from the warmed aliquot was added to the frozen vial and mixed up and down. The media plus thawed cells were then added back to the 50 ml conical. This was repeated until all the cells were thawed and added to the 50 ml tube. Continue with other donors if used. Spin cells for 5 min at 400×g. Supernatant was aspirated and cells resuspended at ˜10*10^6 cells/ml (see vial for cell number).
PBMC Plating: Frozen PBMCs from normal, healthy, human volunteers (StemCell Technologies) were thawed and plated at 250,000 cells/well. After PBMCs were thawed and resuspended at […], cells were then counted (Countess III, Thermo Scientific) and adjusted based on counts to […]. Take the number of PBMCs determined by number of wells for the experiment, for example, 10 wells would need 2.5*10^6 cells total or 0.250 ml. The cells needed for the experiment are then transferred to another conical tube. Warmed TexMACS media is added so that the final concentration is 250,000 cells/190 ul media, for example, 10 wells would need 1.9 ml (190 ul×10 wells) of media total minus 0.250 ml of cells (1.9 ml-0.250 ml) or 1.65 ml of media added to the 0.250 ml of cells. Add 190 ul of cells plus media to the 96 well U-bottom plate. Place in incubator until dilutions are made and ready.
Peptide Dilutions: Ideally, all peptides should be at a starting concentration of at least 10 mM, especially for those in DMSO (ATCC) to reach a final concentration of 1 uM (H2O) or 0.5 uM (DMSO). Dilutions of all test articles should be made at 20× the final concentration, for example, a final concentration of 1 uM peptide would need to be made at 20 uM.
Reagent Dilution: Dilutions are made in TexMACS media, enough for 10 ul/well in triplicate (30 ul of a 20×). Activator—CD3/CD28 (TransAct; Miltenyi Biotech) or cytokine will be at 21× and added after the 45-minute incubation with peptides. Be sure to include relevant controls—Positive: TransAct+Cells, Negative: Vehicle+Cells. Dilutions should also be made in a ultra-low binding plate (Corning).
Assay Procedure: Peptide Treatment: Start assay by thawing the cells and plating in a 96 well, U-bottom tissue culture plate (Corning) as described above. Cell plates are placed in a tissue culture incubator (5% CO2, 37° C.). While cells are in the incubator, start making dilutions (optimally 1 hr or less) as described above. Cell plates are removed from the incubator and 10 ul of the 20× dilutions are added to the relevant wells. After the addition of inhibitors, cell plates are placed in the tissue culture incubator for 45 minutes. The plates are removed from the incubator and 10 ul of 21× TransAct is added to the relevant wells*. Plates are then returned to the incubator and incubated for 24 hours. After 24 hours, plates are spun for 5 minutes at 400×g.
* Activation: This assay can be run in two different formats—Activation and Inhibition. The procedure is the same except no TransAct is needed in the peptide wells for Activation. TransAct is only needed in the control wells. The purpose of this procedure is to determine the possible response from peptides alone.
Cytometric BeadArray (CBA): After the spin, supernatants (˜150 ul) are transferred to a new, ultra-low binding U-bottom plate. Supernatants are then frozen at −20° C. until thawed for CBA (BD) to determine levels of human IL-2, TNFα, IL-1b, IP-10, IL-10, and IFNg. CBA was run according to the manufacturers protocol.

[2] = test system: primary human CD8+ T cells; assay: T cell activation markers in isolated CD8+ T cells +/- CD3/CD28 (ELISA, CD69 flow cytometry); type: cell-based
Description: To determine the effect of the Target Protein on T cell activity, the Target Protein, irrelevant proteins, a single amino acid mutant Target Protein and controls were applied to primary human T cells isolated from Peripheral Blood Mononuclear Cells (PBMCs)+/−CD3/CD28. 24 hours later the levels of extra-cellular CD69, IL-2, and TNFalpha (72 hours for IFN-gamma) were evaluated.
Isolation of PBMCfrom Leukopak: The isolation of peripheral blood mononuclear cells (PBMC) from a leukopak sample was conducted using the EasySep™ Direct Human PBMC Isolation Kit (Cat #19654, StemCell Technologies, Vancouver, BC, Canada) following the manufacturer's instructions. A leukopak sample was prepared within a volume range of 125 mL and added to a T-75 cm2 cell culture flask. EDTA was added to the sample to achieve a final concentration of 6 mM. The Isolation Cocktail provided in the kit was added to the sample without vortexing, and the sample was mixed and incubated at room temperature (RT) for 5 minutes. EasySep buffer was added to double the original sample volume, followed by the addition of vortexed RapidSpheres™. The flask was placed into a magnet and incubated at RT for 5 minutes. The cell suspension was carefully pipetted into a new T-75 cm2 flask, and RapidSpheres™ were added to the enriched cells. The flask was placed back into the magnet for a second separation at RT for 5 minutes. Finally, the cell suspension was carefully pipetted into a new tube or centrifuge bottle, and the isolated PBMCs were ready for use.
Isolation of primary human T-cells: Following the isolation of PBMCs, CD8^+ T cells were isolated using the EasySep™ Human CD8^+ T Cell Isolation Kit (Cat #17953, StemCell Technologies, Vancouver, BC, Canada) according to the manufacturer's instructions. The PBMC sample was prepared at a concentration of […] within a volume range of 2 mL and added to a 5 mL polystyrene round-bottom tube. The Isolation Cocktail provided in the kit (50 μL/mL of sample) was added to the sample without vortexing, mixed, and incubated at RT for 5 minutes. RapidSpheres™ were vortexed for 30 seconds to ensure even dispersion and then added to the sample at a concentration of 50 μL/mL of sample. The EasySep buffer was added to top up the sample to a total volume of 2.5 mL, and the sample was mixed by gently pipetting up and down 2-3 times. The tube (without lid) was placed into the magnet and incubated at RT for 3 minutes. After incubation, the magnet was picked up, and in one continuous motion, the magnet and tube were inverted, pouring the enriched cell suspension into a new tube. The isolated CD8^+ T cells were now ready for use.
Peptide treatment: Isolated CD8^+ T cells were plated in a 96-well format plate at a density of 1×10^5 cells per well. […]

[3] = CD8+ T cells, 10 μM, CD3/CD28, 24 hours, ELISA

Row | Substance | inhibitor of the IL-4 signaling pathway (grade in words) (IL-4 signaling pathway; FIG. 9) | Relative activity (compared to cytokine only controls), Cytokine IL-4 (IL-4 signaling pathway; peptide 5 uM, cytokine at EC75, SEAP OD 600 nm) [%] | Inhibition by Analyte: IL-1b [1] | Inhibition by Analyte: IL-2 [1] | Inhibition by Analyte: IP-10 [1] | Inhibition by Analyte: TNF [1] | T cell activation markers in CD8+ T cells (TNFα, IL-2, CD69) ([2]; 10 μM vs scrambled protein, with CD3/CD28 antibody cocktail, 24 hours) | T-cell activation marker IL-2 [2, 3] | T-cell activation marker TNFalpha [2, 3] | T-cell activation marker CD69 ([2]; CD8+ T cells, 10 μM, CD3/CD28, 24 hours, flow cytometry)
1 | SEQ ID NO: 4227: novel peptide capable of inhibiting pro-inflammatory cytokine pathways (LAVFVIIRNLSDYLSFFFPFLLELLAVEEHHAYL; listed as Homo sapiens) | moderate | −50 |  |  |  |  |  |  |  | 
2 | SEQ ID NO: 4524: novel, secreted peptide that enhances T cell activation (LDFIRAFLLLLVASVPGKIGSQNLTAQRPPVATSFLQMESSEPTVRK; listed as Homo sapiens) |  |  | X | X | X | X | increases | significantly up-regulates | significantly up-regulates | significantly up-regulates
